Measurements taken from the supplement of paper PMC10307832.

How the values were obtained:
Assay in all cases: relative viability (nuclei count vs DMSO), 5 days (fraction); higher = more cells survive
[1] = compound: C1=CC(=CC=C1NC(=S)NNC2=C(C=C(C=C2[N+](=O)[O-])C(F)(F)F)[N+](=O)[O-])F [Kobe2602] + COc1cc2c(Oc3ccc(NC(=O)C4(C(=O)Nc5ccc(F)cc5)CC4)cc3F)ccnc2cc1OCCCN1CCOCC1 [Foretinib] (partner 0.25 µM)
Summary of the method: (§1)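 Lung cancer cell lines were pin-tool dosed in 1536-well plates on the day after seeding, with either a lone drug or a fixed anchor-drug dose plus five library-drug doses (not always all listed) in √10 steps. Nuclei were counted on 4× images after 5 days. Relative viability is the ratio of treated-well to vehicle-well nuclei counts, with each value a median of duplicate plates.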

[2] = compound: COc1cc2nccc(Oc3ccc(NC(=O)C4(C(=O)Nc5ccc(F)cc5)CC4)cc3)c2cc1OC [Cabozantinib] + COc1cc2c(Oc3ccc(NC(=O)C4(C(=O)Nc5ccc(F)cc5)CC4)cc3F)ccnc2cc1OCCCN1CCOCC1 [Foretinib] (partner 0.25 µM)
Summary of the method: as §1

[3] = compound: O[C@@H](COc1cccc2ncccc12)CN1CCN([C@@H]2c3ccccc3[C@@H]3[C@H](c4ccccc42)C3(F)F)CC1 [Zosuquidar] + CC(C)C[C@H](NC(=O)[C@H](Cc1ccccc1)NC(=O)c1cnccn1)B(O)O [Bortezomib] (partner 0.002 µM)
Summary of the method: as §1

[4] = compound: O[C@@H](COc1cccc2ncccc12)CN1CCN([C@@H]2c3ccccc3[C@@H]3[C@H](c4ccccc42)C3(F)F)CC1 [Zosuquidar] + CCNC(=O)c1noc(-c2cc(C(C)C)c(O)cc2O)c1-c1ccc(CN2CCOCC2)cc1 [Luminespib] (partner 0.01 µM)
Summary of the method: as §1

Row | Cell Line | relative viability ([1]; first compound 0.2 µM) | relative viability ([1]; first compound 0.6325 µM) | relative viability ([1]; first compound 6.325 µM) | relative viability ([1]; first compound 20 µM) | relative viability ([2]; first compound 0.02 µM) | relative viability ([2]; first compound 0.06325 µM) | relative viability ([2]; first compound 0.2 µM) | relative viability ([2]; first compound 0.6325 µM) | relative viability ([2]; first compound 2 µM) | relative viability ([3]; first compound 0.01 µM) | relative viability ([3]; first compound 0.03162 µM) | relative viability ([3]; first compound 0.1 µM) | relative viability ([3]; first compound 0.3162 µM) | relative viability ([3]; first compound 1 µM) | relative viability ([4]; first compound 0.01 µM) | relative viability ([4]; first compound 0.03162 µM) | relative viability ([4]; first compound 0.1 µM) | relative viability ([4]; first compound 0.3162 µM) | relative viability ([4]; first compound 1 µM) | relative viability ([1]; first compound 2 µM)
1 | ABC-1 | 0.957 | 0.922 | 0.93 | 1.3 | 1.15 | 1.13 | 1.11 | 1 | 0.932 | 0.361 | 0.328 | 0.322 | 0.379 | 0.269 | 0.682 | 0.742 | 0.748 | 0.603 | 0.474 | 
2 | NCI-H2085 | 0.909 | 1.01 | 1.12 | 0.879 | 0.765 | 1.05 | 0.982 | 1.05 | 0.855 | 1.11 | 0.987 | 0.852 | 1.1 | 1.06 | 0.425 | 0.526 | 0.531 | 0.44 | 0.471 | 
3 | NCI-H661 | 0.869 | 1.01 | 1.02 | 1.03 | 0.985 | 1.04 | 1.01 | 1.02 | 1.09 | 0.875 | 0.702 | 0.628 | 1.12 | 0.949 | 0.911 | 0.875 | 0.875 | 0.938 | 0.891 | 0.99
4 | NCI-H322M | 0.971 | 0.98 | 0.959 | 0.963 | 0.967 | 1.21 | 0.899 | 0.874 | 0.931 | 1.27 | 1.27 | 0.827 | 1.17 | 1.12 | 0.754 | 0.886 | 0.664 | 0.862 | 0.727 | 0.923
5 | LCLC-103H | 0.82 | 0.905 | 0.832 | 0.723 | 0.909 | 0.695 | 0.778 | 0.745 | 0.756 | 1.02 | 1.03 | 0.836 | 1.23 | 0.926 | 0.983 | 0.957 | 0.74 | 0.93 | 1 | 0.751
